“And” between values parts separate entries of the source, which are not always exact repeats. Equal entries are not always repeated. A value given as a limit tells only on which side of the number the result lay.

The target in this test is Nonstructural protein 3 (Zika virus, UniProt A0A024AXB9). Briefly: Functional biochemical assay to identify treatments for viral infectious disease that targets Zika NS2B-NS3 protease. Utilizing a direct enzyme activity measurement method, reading the fluorescence intensity is used to characterize the relative potency of inhibitors as IC50. Set-up: species or system PRVABC59.
Sequence of Nonstructural protein 3 (A0A024AXB9 whole entry): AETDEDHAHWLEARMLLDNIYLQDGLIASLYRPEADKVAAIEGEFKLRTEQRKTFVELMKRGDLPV
On to `Cc1nc(C2CCN(Cc3c[nH]c4ccccc34)CC2)sc1C(=O)O`, for which the IC50 (usually the concentration at which inhibition is half-maximal) turned out to be 99.3 µM.

`N[C@H]1C[C@H](CNC(=O)[C@@H](NC(=O)OCc2ccccc2)c2ccc(OCc3ccccc3)cc2)C1` yielded a half-maximal inhibitory concentration (IC50) of over 99.5 µM.

Consider `NCc1cccc(NC(=O)[C@@H](NC(=O)OCc2ccccc2)c2ccc(Br)cc2)c1`, for which the IC50 was 53.6 µM and 54.4 µM.

For the molecule `NCc1cccc(NC(=O)[C@H]2Cc3ccccc3N2C(=O)OCc2ccccc2)c1`, the IC50 was over 99.5 µM.

On to `NCc1ccc(C[C@H](NC(=O)c2ccccc2)C(=O)Nc2cccc(CN)c2)cc1`, for which the IC50 was over 99.5 µM.

For the molecule `O=C(O)c1ccc(C2CCN(Cc3c[nH]c4ccccc34)CC2)cc1`, the IC50 was over 99.5 µM.

The molecule `NC[C@H]1C[C@H](NC(=O)[C@@H](NC(=O)OCc2ccccc2)c2ccc(OCc3ccccc3)cc2)C1` yielded a half-maximal inhibitory concentration (IC50) of over 99.5 µM.

The molecule `NC(=O)C1CCN(Cc2c[nH]c3ccccc23)CC1` came in with an IC50 of over 99.5 µM.

The molecule `OCc1cc(C2CCN(Cc3c[nH]c4ccccc34)CC2)no1` gave a concentration for half-maximal inhibition (IC50) of 54.9 µM.

`N[C@H]1CC[C@H](NC(=O)[C@@H](NC(=O)OCc2ccccc2)c2ccc(OCc3ccccc3)cc2)C1` displayed a concentration for half-maximal inhibition (IC50) of over 99.5 µM.

`C[C@@H](C(=O)Nc1cccc(CN)c1)c1ccc(OCc2ccccc2)cc1` came in with a concentration for half-maximal inhibition (IC50) of over 99.5 µM.

`O=C(NC[C@H]1CCOC1)c1cc(Cl)ccc1NS(=O)(=O)c1ccc(Oc2ccccc2Cl)cc1` displayed an IC50 of over 99.5 µM.

`c1cc(CN2CCC(c3c[nH]c4cccnc34)CC2)c2cn[nH]c2c1`: the half-maximal inhibitory concentration (IC50) is over 99.5 µM.

The molecule `CC(C)(C)OC(=O)NCc1cccc(NC(=O)[C@@H](NC(=O)OCc2ccccc2)c2ccc(O)cc2)c1` displayed an IC50 of over 99.5 µM.

`NCc1cccc(NC(=O)[C@@H](NC(=O)OCc2ccccc2)c2ccc(F)c(F)c2)c1` returned an IC50 of over 99.5 µM.

As to `Cc1cc(C(=O)O)c(NS(=O)(=O)c2ccc(Oc3ccccc3Cl)cc2)cc1F`, the IC50 worked out at 21.2 µM.

Consider `O=S(=O)(c1c[nH]c2ccccc12)N1CCC(c2cnc3ccc[nH]c2-3)CC1`, for which the IC50 was over 99.5 µM.

Turning to `NCc1cccc(NC(=O)[C@@H](NC(=O)OCc2ccccc2)c2ccc(F)cc2)c1`, the 50% inhibitory concentration (IC50) is over 99.5 µM.

With `NCc1cccc(NC(=O)C[C@@H](NC(=O)OCc2ccccc2)c2ccc(OCc3ccccc3)cc2)c1`, inhibition was half-maximal at 6.93 µM (IC50).

`CCn1cc(-c2ccccc2)nc(N2CC[C@@H](CO)C2)c1=O` came in with an IC50 of over 99.5 µM.

On to `Cn1cc(C(=O)O)c(NS(=O)(=O)c2ccc(Oc3ccccc3Cl)cc2)n1`, for which the IC50 was over 99.5 µM.

Turning to `NCc1cccc(NC(=O)[C@@H](Cc2ccccc2)NC(=O)OCc2ccccc2)c1`, the 50% inhibitory concentration (IC50) is over 99.5 µM.

As to `COc1ccc(S(=O)(=O)Nc2cc(F)c(Cl)cc2C(=O)NCC(C)C)cc1`, the concentration for half-maximal inhibition (IC50) was over 99.5 µM.

`c1ccc2c(CN3CCC(c4c[nH]c5cccnc45)CC3)n[nH]c2c1` came in with a half-inhibitory concentration (IC50) of 42.9 µM.

In the case of `O=C(O)c1cc(Cl)ccc1NS(=O)(=O)c1ccc(Oc2ccccc2)cc1`, the IC50 was found to be 70.7 µM.

`Cc1cnn(-c2cc(C(=O)O)c(NS(=O)(=O)c3ccc(Oc4ccccc4Cl)cc3)cc2F)c1` came in with a concentration for half-maximal inhibition (IC50) of 10.6 µM.

For the molecule `NC(=O)[C@H](c1c[nH]c2ccccc12)N1CCC(c2cnc3ccc[nH]c2-3)CC1`, 96.5 µM corresponded to half-maximal inhibition (IC50).

Turning to `O=C(O)c1cc(OC2CCOCC2)c(F)cc1NS(=O)(=O)c1ccc(Oc2ccccc2Cl)cc1`, the IC50 came out at 37 µM.

The molecule `OC[C@H]1CCN(c2cncc(N3CCOCC3)n2)C1` came in with an IC50 of over 99.5 µM.

For the molecule `C#CCn1ccnc(N2CC[C@H](CO)C2)c1=O`, the IC50 was over 99.5 µM.

`O[C@@H]1CN(Cc2c[nH]c3ccccc23)CC[C@@H]1c1ccccc1`: it took 47.4 µM to reach half-maximal inhibition (IC50).

Turning to `c1cncc(C2CCN(Cc3c[nH]c4ccccc34)CC2)c1`, the half-inhibitory concentration (IC50) was determined as 32.6 µM.

Consider `c1ccc(-c2csc(C3CCN(Cc4c[nH]c5ccccc45)CC3)n2)cc1`, for which the concentration for half-maximal inhibition (IC50) was 22.4 µM.

With `O=S(=O)(c1ccc(Oc2ccccc2Cl)cc1)n1ccc2cc(Cl)ccc21`, the IC50 was over 99.5 µM.

`Cc1cc(C(=O)O)c(NS(=O)(=O)c2ccc(Oc3ccccc3)cc2)cc1F` registered an IC50 of 68.5 µM.

The molecule `CC(C)Oc1cncc(N2CC[C@@H](CO)C2)c1` displayed an IC50 of over 99.5 µM.

In turn, `O=C(O)c1cc(Cl)c(Cl)cc1NS(=O)(=O)c1ccc(Oc2ccccc2Cl)cc1` came in with an IC50 of 9.06 µM.

`c1ccc(C2CCN(Cc3c[nH]c4ccccc34)CC2)nc1` yielded an IC50 of 34.7 µM.

The molecule `Cn1cc(NS(=O)(=O)c2ccc(Oc3ccccc3Cl)cc2)c(C(=O)O)n1` yielded an IC50 of over 99.5 µM.

For the molecule `O[C@@H]1CN(Cc2c[nH]c3ccccc23)C[C@H]1c1c[nH]c2ccccc12`, the concentration for half-maximal inhibition (IC50) was over 99.5 µM.

As to `CCn1ccnc(-n2cc([C@@H]3NC(=O)NC3=O)c3ccccc32)c1=O`, the IC50 was over 99.5 µM.

In turn, `N[C@@H]1CC[C@H](NC(=O)[C@@H](NC(=O)OCc2ccccc2)c2ccc(OCc3ccccc3)cc2)C1` showed a half-maximal inhibitory concentration (IC50) of over 99.5 µM.

`CCn1ccc2cc(CN3CCC(c4c[nH]c5cccnc45)CC3)ccc21`: the concentration for half-maximal inhibition (IC50) was over 99.5 µM.

In turn, `NCc1cccc(NC(=O)[C@@H](N)c2ccc(OCc3ccccc3)cc2)c1` returned a concentration for half-maximal inhibition (IC50) of over 99.5 µM.

`NCc1cccc(CNC(=O)[C@@H](NC(=O)OCc2ccccc2)c2ccc(OCc3ccccc3)cc2)c1`: the IC50 was 19 µM and 11.6 µM.

The molecule `CCn1ccc(-c2ccc([C@@H](NC(=O)OCc3ccccc3)C(=O)Nc3cccc(CN)c3)cc2)n1` showed an IC50 of over 99.5 µM.

The molecule `O=C(O)c1c(NS(=O)(=O)c2ccc(Oc3ccccc3Cl)cc2)ccc(Cl)c1F` had a 50% inhibitory concentration (IC50) of 54.1 µM.

Take `c1cnc2c(C3CCN(Cc4c[nH]c5ncccc45)CC3)c[nH]c2c1`: the IC50 is over 99.5 µM.

For `CCn1cc(C#N)nc(N2CC[C@@H](CO)C2)c1=O`, the IC50 was over 99.5 µM.

Molecule `NCc1cccc(NC(=O)[C@@H]2c3ccsc3CCN2C(=O)OCc2ccccc2)c1` yielded a 50% inhibitory concentration (IC50) of over 99.5 µM.

Regarding `O=C(O)c1cc2c(cc1NS(=O)(=O)c1ccc(Oc3ccccc3Cl)cc1)CCC2`, half-maximal inhibition (IC50) required 17.5 µM.

Take `NCc1cccc(NC(=O)[C@@H](NC(=O)OCc2ccccc2)c2ccc(-c3ccccc3F)cc2)c1`: the IC50 came to 8.51 µM.

Take `NCc1cc(Cl)ccc1NS(=O)(=O)c1ccc(Oc2ccccc2Cl)cc1`: the IC50 was over 99.5 µM.

In the case of `c1cnc2c(CN3CCC(c4c[nH]c5cccnc45)CC3)c[nH]c2c1`, half-maximal inhibition (IC50) was put at 44.4 µM.

`COC(=O)c1cc(Cl)ccc1NS(=O)(=O)c1ccc(Oc2ccccc2Cl)cc1`: the concentration for half-maximal inhibition (IC50) was over 99.5 µM.

Turning to `O=C(O)[C@H]1CCCC[C@@H]1NS(=O)(=O)c1ccc(Oc2ccccc2Cl)cc1`, the IC50 was over 99.5 µM.

`O=C(NCC1CC1)c1cc(Cl)cc(NS(=O)(=O)c2ccc(Oc3ccccc3Cl)cc2)c1` yielded an IC50 of 49.9 µM.

As for `O=C(O)[C@@H]1CC2(CC[C@@H]1NS(=O)(=O)c1ccc(Oc3ccccc3Cl)cc1)CC2`, the IC50 was over 99.5 µM.

`N[C@H]1CC[C@@H](NC(=O)[C@@H](NC(=O)OCc2ccccc2)c2ccc(OCc3ccccc3)cc2)C1`: the 50% inhibitory concentration (IC50) is over 99.5 µM.

`COC(=O)c1cc(Cl)ccc1NS(=O)(=O)c1ccc(Cl)nc1` returned a half-inhibitory concentration (IC50) of over 99.5 µM.

In the case of `NCc1cccc(NC(=O)CN(C(=O)OCc2ccccc2)c2ccc(OCc3ccccc3)cc2)c1`, the IC50 was 14.5 µM.

In turn, `COc1cc(N[C@@H](C(=O)N2CCc3ccc(OC(F)(F)F)cc32)c2ccc(Cl)cc2)cc(OCCCC(=O)O)c1` had an IC50 of 20.4 µM.

In the case of `NCc1cccc(NC(=O)[C@@H](NC(=O)OCc2ccccc2)c2cccnc2)c1`, the 50% inhibitory concentration (IC50) is over 99.5 µM.

Take `O=C(O)c1cc(Cl)ccc1NS(=O)(=O)c1ccc(Br)cc1`: the IC50 is over 99.5 µM.

Regarding `NCc1cccc(NC(=O)c2cc(OCc3ccccc3)ccc2CNC(=O)OCc2ccccc2)c1`, 21.1 µM corresponded to half-maximal inhibition (IC50).

`O=C(O)c1cc(Cl)ccc1S(=O)(=O)Nc1ccc(Oc2ccccc2Cl)cc1` yielded an IC50 of 48 µM.

`O=C(O)[C@@H]1CCCC[C@H]1NS(=O)(=O)c1ccc(Oc2ccccc2Cl)cc1` came in with an IC50 of over 99.5 µM.

The molecule `O=C(N[C@@H]1CCc2cn[nH]c2C1)c1cccc2c1NC(=O)[C@]1(CCCN1)C2` came in with an IC50 of over 99.5 µM.

`Cc1cc(-c2ccc([C@@H](NC(=O)OCc3ccccc3)C(=O)Nc3cccc(CN)c3)cc2)cs1` displayed an IC50 of 3.94 µM.

Turning to `NCc1cccc(NC(=O)c2ccc(OCc3ccccc3)cc2)c1`, the concentration for half-maximal inhibition (IC50) was over 99.5 µM.

With `CN(C(=O)[C@@H](NC(=O)OCc1ccccc1)c1ccc(OCc2ccccc2)cc1)c1cccc(CN)c1`, the IC50 is over 99.5 µM.

`O=C(O)c1nscc1NS(=O)(=O)c1ccc(Oc2ccccc2Cl)cc1` came in with an IC50 of over 99.5 µM.

As to `N#CC1(c2ccccc2)CCN(Cc2c[nH]c3ccccc23)CC1`, the IC50 is over 99.5 µM.

As to `NC1(c2cccc(NC(=O)[C@@H](NC(=O)OCc3ccccc3)c3ccc(OCc4ccccc4)cc3)c2)CCC1`, the IC50 is over 99.5 µM.

The molecule `O=C(O)c1ccn(C2CCN(Cc3c[nH]c4ccccc34)CC2)n1` showed a concentration for half-maximal inhibition (IC50) of over 99.5 µM.

For the molecule `OC[C@H]1CCN(c2ccnc(C(F)F)c2)C1`, the half-maximal inhibitory concentration (IC50) was over 99.5 µM.

`O=C(NCc1cnn(CCO)c1)c1cccc2c1NC(=O)[C@]1(CCCN1)C2` came in with an IC50 of over 99.5 µM.

In turn, `O=C(O)c1cc(NS(=O)(=O)c2ccc(Oc3ccccc3Cl)cc2)ccc1Cl` came in with a half-inhibitory concentration (IC50) of over 99.5 µM.

As for `CCn1ccnc(N2C[C@@H](OC(=O)OC)[C@H](c3c[nH]c4ccccc34)C2)c1=O`, the IC50 was over 99.5 µM.

For the molecule `Cc1cccc([C@@H](NC(=O)OCc2ccccc2)C(=O)Nc2cccc(CN)c2)n1`, the IC50 is over 99.5 µM.

`Cn1cc(CN2CCC(c3c[nH]c4cccnc34)CC2)c2ccccc21` yielded a half-maximal inhibitory concentration (IC50) of over 99.5 µM.

Turning to `CC(C)(C)OC(=O)NCc1cccc(NC(=O)[C@@H](NC(=O)OCc2ccccc2)c2cccc(O)c2)c1`, the IC50 is over 99.5 µM.

Take `Cc1cc(C=O)c(C)n1-c1cccc(C(=O)N2CCN(C)CC2)c1`: the IC50 was over 99.5 µM.

In turn, `O=C(O)[C@@H]1CCCC[C@@H]1NS(=O)(=O)c1ccc(Oc2ccccc2Cl)cc1` gave a 50% inhibitory concentration (IC50) of over 99.5 µM.

As to `NCc1ccc(C[C@H](NC(=O)OCc2ccccc2)C(=O)Nc2cccc(CN)c2)cc1`, the IC50 stood at 33.4 µM.

`COc1ccc(S(=O)(=O)Nc2cc(F)c(Cl)cc2C(=O)O)cc1`: the concentration for half-maximal inhibition (IC50) was over 99.5 µM.

`COc1cc(NS(=O)(=O)c2ccc(Oc3ccccc3Cl)cc2)c(C(=O)O)cc1Cl` yielded an IC50 of 16.3 µM.

Consider `Cc1cc(C(=O)N[C@@H]2CC[C@@H]3CN(C)C[C@@H]32)sc1C=O`, for which the IC50 was over 99.5 µM.

As for `Cc1ncc(-c2ccc([C@@H](NC(=O)OCc3ccccc3)C(=O)Nc3cccc(CN)c3)cc2)s1`, the concentration for half-maximal inhibition (IC50) was determined as 27.2 µM.
